{"source": "patent US20150050371A1", "about": "“Extract Formulations of Rhodamnia Cinerea And Uses Thereof” (BIOTROPICS MALAYSIA BERHAD, priority 2012, published 2015)", "test_system": "normal male Wistar rats", "assay": "Acute Starch Tolerance Test (STT), glycemia after oral wheat starch", "assay_type": "in vivo, rat", "conditions": "5 mg/kg oral", "procedure": "An acute Starch Tolerance Test (STT) was performed by the administration by oral gavage of a 7.5% purified wheat starch solution at 1.5 g/kg of body weight to normal male Wistar rats. The effect of a concomitantly administered hot water extract formulation from Rhodamnia cinerea leaves (BTP-00167-14; ref. example 1.2) on the glycemic index was measured at different doses orally administered (50 and 200 mg/kg of body weight). The extract formulation BTP-00167-14 was administered by oral route concomitantly with wheat starch solutions. Glycemia was measured before and 15, 30, 60, 90, and 120 min after mixture administration. The positive control group received acarbose at 5 mg/kg of body weight together with the starch. The actual volume administered to each rat was calculated and adjusted based on the most recent body weight of each animal. STT onset was between 12:00 p.m. (noon) and 1:00 p.m. on animals fasted overnight. Blood samples (one drop) were collected via the tail vein for glucose determination using a hand-held glucometer before and 15, 30, 60, 90, and 120 min after starch administration. Seven-week old rats weighing around 135 g were used for the experiment. One day before the test, rats were randomly assigned to the different experimental groups. Delta glycemia values were calculated by subtraction of the pre-STT glycemia values (Time 0). Values represent average (i.e. mean) values.", "note": "Marks after values point to notes of the source that are not given here.", "data": [{"smiles": "C[C@H]1O[C@H](O[C@H]2[C@H](O)[C@@H](O)[C@@H](O[C@H]3[C@H](O)[C@@H](O)C(O)O[C@@H]3CO)O[C@@H]2CO)[C@H](O)[C@@H](O)[C@@H]1N[C@H]1C=C(CO)[C@@H](O)[C@H](O)[C@H]1O", "note": "(stereo partly drawn) [Acrabose, acarbose]", "values": [{"measurement": "Glycemia 15 min", "setting": "15 min after starch", "value": "72.4** mg/dL"}, {"measurement": "Glycemia 30 min", "setting": "30 min after starch", "value": "83.7** mg/dL"}, {"measurement": "Glycemia 60 min", "setting": "60 min after starch", "value": "71.7** mg/dL"}, {"measurement": "Glycemia 90 min", "setting": "90 min after starch", "value": "66.0** mg/dL"}, {"measurement": "Glycemia 120 min", "setting": "120 min after starch", "value": "61.9** mg/dL"}, {"measurement": "Glycemia 0 min", "setting": "before administration", "value": 55.0, "unit": "mg/dL"}]}]}
